From patent US20260083687A1, “COMPOUNDS FOR REDUCING LACTATION AND IMPROVING HEALTH” (AHV International B.V., priority 2022, published 2026)

Assays:
[1] = test system: cows (Holstein Friesians); assay: Dose-response DPD treatment and milk yield (Example 2); format: in vivo, cow; conditions: for Milk yield Last milking: before administration; for % reduction after 24 h / % reduction after 48 h / % reduction after 72 h / % reduction after 96 h: vs milk yield before treatment
Text: Study design. Twenty-seven cows (Holstein Friesians) from 2 farms were used. […] The cows were milked twice a day. The cows were housed in free stables.
[…] For each dosage 3 cows were used.

[2] = test system: Holstein Frisian dairy cows; assay: Effect of 80 ml synthetic DPD on udder pressure, stress behavior and milk leakage after abrupt dry off (Example 3); format: in vivo, cow
Protocol: Holstein Frisian dairy cows were selected with a production of at least 12.5 kg milk/day at the last lactation. These cows were immediately treated after the last milking before abrupt dry off with 80 ml di-n-propyl disulfide (DPD) took place in the three studies of this example. Because of a limited number of available cows, a control group was available only in study 3. Treated cows were monitored for udder pressure, milk leakage and stress after the last milking every 12 hours for the first 72 hours.
46 Dairy cows (Holstein Frisian) from 7 farms in The Netherlands were enrolled in this field study for two months. In table 8 a description is presented with respect to some keeping conditions of and information about the cows.
After the last milking, the cows were isolated from the other lactating cows. Only at farm 2 and 6 the cows could hear the milking machine. After isolation the cows were administered 80 ml synthetic DPD. Hereafter, the cows were monitored by the farmer for 72 hours and scored each 12 hour after abrupt dry off. The farmer scored visually for milk leakage (yes/no-scores), udder pressure and stress according to a standard scoring form (see tables 9 and 10). Cows somatic cell count numbers were extracted from the last milk recording before drying and the first milk recording after calving (5-30 Days In Lactation).
Data analysis: the control groups with respect to milk leakage, udder stress and stress were scored and compared with the data as presented earlier in literature. For milk leakage, the data were compared assumed that 24.5% of the cows are going to leak milk after drying off (De Prado-Taranilla et al., 2020. Incidence of milk leakage after dry-off in European dairy herds, related risk factors, and its role in new intramammary infections. Journal of Dairy Science, 103(10), 9224-9237.). Udder Pressure (Bertulat et al., 2013. Measurement of fecal glucocorticoid metabolites and evaluation of udder characteristics to estimate stress after sudden dry-off in dairy cows with different milk yields. Journal of Dairy Science, 96(6), 3774-3787) and Stress (Chapinal et al., 2014. Changes in lying behavior after abrupt cessation of milking and regrouping at dry-off in free stall-housed cows: A case study. Journal of Veterinary Behavior, 9(6), 364-369;) were translated to the scoring tables as expected outcome (table 11).

[3] = 80 ml synthetic DPD, abrupt dry off, vs control group

behavior of the cows ([1]; more than 100 ml DPD): looked like to become more active
SMILES: CCCSSCCC [DPD, di-n-propyl disulfide]
Average reduction 24 and 48 h (%) ([1]; 10 ml DPD): −3.3%
Milk yield After 24 h ([1]; 10 ml DPD): 14.45 kg
Milk yield After 48 h ([1]; 10 ml DPD): 13.98 kg
Milk yield After 72 h ([1]; 10 ml DPD): 12.99 kg
Milk yield After 96 h ([1]; 10 ml DPD): 13.78 kg
Milk yield Last milking ([1]; 10 ml DPD): 13.76 kg
% reduction after 24 h ([1]; 10 ml DPD): −5%
% reduction after 48 h ([1]; 10 ml DPD): −1.6%
% reduction after 72 h ([1]; 10 ml DPD): 5.6%
% reduction after 96 h ([1]; 10 ml DPD): 0%
Average reduction 24 and 48 h (%) ([1]; 20 ml DPD): 23%
Milk yield After 24 h ([1]; 20 ml DPD): 9.42 kg
Milk yield After 48 h ([1]; 20 ml DPD): 10.2 kg
Milk yield After 72 h ([1]; 20 ml DPD): 12.93 kg
Milk yield After 96 h ([1]; 20 ml DPD): 12.68 kg
effect on milk yield compared to the milk yield before treatment ([1]; 20 ml DPD): clear lowering on milk yield
Milk yield Last milking ([1]; 20 ml DPD): 12.72 kg
% reduction after 24 h ([1]; 20 ml DPD): 26%
% reduction after 48 h ([1]; 20 ml DPD): 20%
% reduction after 72 h ([1]; 20 ml DPD): −1.7%
% reduction after 96 h ([1]; 20 ml DPD): 0%
Average reduction 24 and 48 h (%) ([1]; 50 ml DPD): 33%
Milk yield After 24 h ([1]; 50 ml DPD): 10.03 kg
Milk yield After 48 h ([1]; 50 ml DPD): 8.38 kg
Milk yield After 72 h ([1]; 50 ml DPD): 14.16 kg
Milk yield After 96 h ([1]; 50 ml DPD): 13.68 kg
Milk yield Last milking ([1]; 50 ml DPD): 13.73 kg
% reduction after 24 h ([1]; 50 ml DPD): 27%
% reduction after 48 h ([1]; 50 ml DPD): 39%
% reduction after 72 h ([1]; 50 ml DPD): −3.1%
% reduction after 96 h ([1]; 50 ml DPD): 0%
Average reduction 24 and 48 h (%) ([1]; 80 ml DPD): 55%
Milk yield After 24 h ([1]; 80 ml DPD): 8.46 kg
Milk yield After 48 h ([1]; 80 ml DPD): 7.40 kg
Milk yield After 72 h ([1]; 80 ml DPD): 15.63 kg
Milk yield After 96 h ([1]; 80 ml DPD): 17.65 kg
Milk yield Last milking ([1]; 80 ml DPD): 17.63 kg
% reduction after 24 h ([1]; 80 ml DPD): 52%
% reduction after 48 h ([1]; 80 ml DPD): 58%
% reduction after 72 h ([1]; 80 ml DPD): 11.3%
% reduction after 96 h ([1]; 80 ml DPD): 0%
behavior of the cows ([1]; 80 ml or more DPD): became restless and showed a more active behavior
Average reduction 24 and 48 h (%) ([1]; 100 ml DPD): 51%
Milk yield After 24 h ([1]; 100 ml DPD): 8.12 kg
Milk yield After 48 h ([1]; 100 ml DPD): 8.44 kg
Milk yield After 72 h ([1]; 100 ml DPD): 13.33 kg
Milk yield After 96 h ([1]; 100 ml DPD): 16.55 kg
Milk yield Last milking ([1]; 100 ml DPD): 16.23 kg
% reduction after 24 h ([1]; 100 ml DPD): 50%
% reduction after 48 h ([1]; 100 ml DPD): 52%
% reduction after 72 h ([1]; 100 ml DPD): 17.9%
% reduction after 96 h ([1]; 100 ml DPD): −0.2%
Average reduction 24 and 48 h (%) ([1]; 150 ml DPD): 62%
Milk yield After 24 h ([1]; 150 ml DPD): 8.72 kg
Milk yield After 48 h ([1]; 150 ml DPD): 5.17 kg
Milk yield After 72 h ([1]; 150 ml DPD): 11.24 kg
Milk yield After 96 h ([1]; 150 ml DPD): 14.63 kg
Milk yield Last milking ([1]; 150 ml DPD): 14.78 kg
% reduction after 24 h ([1]; 150 ml DPD): 59%
% reduction after 48 h ([1]; 150 ml DPD): 65%
% reduction after 72 h ([1]; 150 ml DPD): 24%
% reduction after 96 h ([1]; 150 ml DPD): 0%
Average reduction 24 and 48 h (%) ([1]; 175 ml DPD): 55%
Milk yield After 24 h ([1]; 175 ml DPD): 8.44 kg
Milk yield After 48 h ([1]; 175 ml DPD): 8.75 kg
Milk yield After 72 h ([1]; 175 ml DPD): 13.24 kg
Milk yield Last milking ([1]; 175 ml DPD): 15.63 kg
% reduction after 24 h ([1]; 175 ml DPD): 54%
% reduction after 48 h ([1]; 175 ml DPD): 56%
% reduction after 72 h ([1]; 175 ml DPD): 15.3%
Average reduction 24 and 48 h (%) ([1]; 200 ml DPD): 52%
Milk yield After 24 h ([1]; 200 ml DPD): 11.29 kg
Milk yield After 48 h ([1]; 200 ml DPD): 10.87 kg
Milk yield After 72 h ([1]; 200 ml DPD): 13.56 kg
Milk yield Last milking ([1]; 200 ml DPD): 21.31 kg
% reduction after 24 h ([1]; 200 ml DPD): 53%
% reduction after 48 h ([1]; 200 ml DPD): 51%
% reduction after 72 h ([1]; 200 ml DPD): 36.4%
behavior and eating behavior of the cows ([1]; after DPD administration): relaxed and quiet behavior and no change in eating behavior was observed
adverse effects ([1]; dose of 200 grams administered to a cow): without demonstrating any adverse effects
effect on milk yield ([1]; more than 80 ml DPD): no further decrease of milk yield was observed
dosage at which the milk yield decrease became visible ([1]; single oral dose): ≥ 20 mL
dosage giving maximum response (milk yield decrease) ([1]; single oral dose): ≥ 80 mL
duration of the effect of DPD on milk yield ([1]; single oral dose): disappears on the 3rd and 4th day after treatment
behavior of the cows ([1]; until 80 ml DPD): no undesired behavior of the cows was observed
side effects ([2]; 80 ml synthetic DPD after last milking, 46 cows): None of the cows showed any side effects
milk fever at calving ([2]; 80 ml synthetic DPD at dry off): None of the cows had milk fever at calving
average SCC (somatic cell count) ([2]; 80 ml synthetic DPD at dry off, first milk recording of the new lactation): 58,000 cells/ml
milk leakage [2, 3]: less milk leakage
stress [2, 3]: lower
udder pressure [2, 3]: lower udder pressure
average SCC (somatic cell count) ([2]; last milk recording of the last lactation (before dry off)): 89,000 cells/ml
